Measurements published in patent publication EP1023836A1, “Compositions and methods for inhibiting the growth of fungi” (UNILEVER N.V., priority 1999, dated 2000).

Tests used:
Format in all cases: cell-based
[1] = system: Saccharomyces cerevisiae wild type strain SU-50; assay: Growth curves / growth inhibition of yeast strain SU-50; conditions: for effect on growth: comparative sugar 25 mM with 25 µM MB21, strain SU50, 100 cells per ml, versus reference (no sugar, no MMAS) and MB21 alone (Fig. 5a)
Method: (§1) For examples 2, and 4-9 grow-curves were recorded at 25°C using a microbiology growth reader (Bioscreen C, ex Labsystems). For example 3, growth curve was determined as turbidity, measured by hand at a wave length of 660 nm (OD 660).
(§2) • a) Saccharomyces cerevisiae strain SU52-pUR 5801 was grown in YNB and YEPD media, at 30°C with shaking at 225 rpm in an orbital incubator until a OD (660 nm) between 5 and 6 was reached. In parallel experiments several concentrations of β-gentiobiose or pustulan fragments were included in the media. After cultivation, the media were separated from the cells by centrifugation (10.000 x g for 15 mm at 4°C). The media were then filtered using 0.22 µM filters. Secretion of α-galactosidase-CWP2p was assessed by measuring α-galactosidase enzyme activity in the media (see further on). • b) Growth curves were obtained with the strain SU-50. The cells (about 10 per ml) were cultured in YEPD at 25°C in the presence or absence of β-gentiobiose or pustulan fragments and MB-21, by using a 24 well plate at room temperature with continuous shaking on a micro-titre plate shaker (mark 4) or a microbiology growth reader (Bioscreen C).
(§3) Three YEPD media were prepared, one without MB21, the other YEPD media contained 10 µM MB21 and 20 µM MB21, respectively. To these media β-gentiobiose was added in concentrations of 0, 50, 100 and 200 mM. The yeast strain SU50 was inoculated in these media in a concentration of 10 cells per ml, and cultivated in a 24 well plate at 25°C. Samples were taken from a 24 well plate at regular time intervals, diluted sixty times with distilled water and measured at 660 nm to construct the growth curves. […] However, if the sub-lethal concentrations of MB21 and β-gentiobiose are combined, a clear reduction in growth potential of SU50 (10 cells per ml) was observed.
This example illustrates a relationship between the length of the β-(1,6)-glucan fragments and their effectiveness in competition. When the same concentration of MB21 (20 µM) was used [about 50 cells per ml] was used, a glucan fragment was obtained from pustulan with an average MW of 686, which was at least hundred times as effective as β-gentiobiose, as shown in Fig. 4.
(§4) In this example, three strains are grown in various media in the fashion of example 3, with the exception of being inoculated in the media in a concentration of 100 cells per ml. The sugars used are all comparatives: laminaribiose (β-1,3)-linked D-glucose), sucrose (having a 1,2 link), and sorbitol.
In this example, strain SU 50 was grown three media (see table 2) in the fashion of example 3, with the exception of being inoculated in the media in a concentration of 100 cells per ml.

[2] = system: Zygosaccharomyces bailii G1; assay: Growth curves / growth inhibition of yeast strain G1; conditions: comparative sugar 200 mM with 6 µM MB21, strain G1, 100 cells per ml; versus reference and MB21 alone (Fig. 5c)
Method: as §1, §3, §4
In this example, strain G1 was grown three media (see table 4) in the fashion of example 3, with the exception of being inoculated in the media in a concentration of 100 cells per ml. […]

[3] = system: Zygosaccharomyces bailii ZB (NCYC 563); assay: Growth curves / growth inhibition of yeast strain ZB; conditions: comparative sugar 200 mM with 6 µM MB21, strain ZB, 100 cells per ml; versus reference and MB21 alone (Fig. 5b)
Method: as §1, §3, §4
In this example, strain ZB was grown three media (see table 3) in the fashion of example 3, with the exception of being inoculated in the media in a concentration of 100 cells per ml.

[4] = system: Saccharomyces cerevisiae strain SU52-pUR5801; assay: Cell wall protein release test (secretion of α-galactosidase-CWP2p fusion protein, α-galactosidase activity in the medium); conditions: β-gentiobiose 10, 50 and 100 mM in YEPD with 5% galactose, 30 °C, 18 hours; linear up to 100 mM (Fig. 1)
Method: as §2
α-Galactosidase activity was determined at 37°C using p-nitrophenyl α-D-galactopyranoside (PNPG) as substrate in 0.1 M potassium acetate buffer, pH 5.0. […] The extinction of the liberated p-nitrophenolate was recorded at 405 nm.
β-Gentiobiose was dissolved in YEPD media supplemented with 5% galactose, in concentrations of 10, 50 and 100 mM respectively. […] The enzyme activity of the fusion protein CWP2-α-galactosidase was measured as described in the α-galactosidase assay. […]

For `OC[C@H]1O[C@@H](O[C@H]2[C@H](O)[C@@H](CO)OC(O)[C@@H]2O)[C@H](O)[C@@H](O)[C@@H]1O` (stereo partly drawn) [laminaribiose], the effect on growth [1] was “stimulating effect”.

For `OC[C@@H](O)[C@@H](O)[C@H](O)[C@@H](O)CO` [sorbitol], the effect on growth [1] was “stimulating effect”, the effect on growth [2] was “stimulating effect” and the effect on growth [3] was “stimulating effect”.

`OC[C@H]1O[C@@](CO)(O[C@H]2O[C@H](CO)[C@@H](O)[C@H](O)[C@H]2O)[C@@H](O)[C@@H]1O` [sucrose] was tested, and the effect on growth [1] was “stimulating effect”, the effect on growth [2] was “stimulating effect” and the effect on growth [3] was “stimulating effect”.

`OC[C@H]1O[C@@H](OC[C@H]2O[C@@H](O)[C@H](O)[C@@H](O)[C@@H]2O)[C@H](O)[C@@H](O)[C@@H]1O` [β-Gentiobiose, 6-O-β-D-glucopyranosyl-β-D-glucose] was tested, and the “growth of SU-50” value ([1]; β-gentiobiose as such (0, 50, 100, 200 mM), no MB21, 10 cells per ml, 25°C, OD 660 (Fig. 3)) was “no influence” and the “release of the fusion protein α-galactosidase-CW2p from the cell wall” value [4] was “concentration dependent”.
